Measurements: US20230277503A1, “COMPOSITIONS AND METHODS TO REDUCE PATHOGENESIS” (priority 2017, published 2023)
“Also recorded” adds a separate entry of the source. Read-outs that look alike come from different tables or passages of the source. Marks after values point to notes of the source that are not given here.

Tests used:
[1] = system: human microvascular endothelial cells (HMEC); assay: HMEC spheroid vascular-like tubule outgrowth; type: cell-based; details: matrigel with VEGF; serotonin 50 nM, R-DOI 100 nM, TCB2 500 nM
Method: HMEC cells were cultured in specially coated U-shaped bottom 96 well plates in order to form tissue-like 3 dimension spheroids. Spheroids were subsequently implanted into wells that contained matrigel basement membranes supplemented with vascular endothelial growth factor (VEGF) or starved (Starvation control-no VEGF). Culture media was treated with either serotonin (50 nM), (R-DOI (100 nM) or TCB2 (500 nM) outgrowth from the spheroids of vascular-like structures was monitored microscopically.

[2] = system: VEGF-mediated neovascularization from aortic rings; assay: Aortic ring neovascularization assay; type: cell-based, mice; details: for blood vessel sprouting, branching and formation from aortic rings: VEGF-containing endothelial growth medium, matrigel
Method: Referring to FIG. 34 for example, the aortas from sacrificed mice are removed, cleaned, and dissected into 1 mm tubule sections. These aortic rings are implanted into matrigel basement membrane and incubated in endothelial cell growth medium containing vascular endothelial growth factor. Aortic rings are continuously incubated in the presence of 5HT2A receptor agonists and antagonists at the indicated concentrations and examined by microscopy daily. Extensive sprouting, branching and networking of new blood vessels can be observed in control aortic rings, where multiple images needed to be stitched together in order to capture the extensive blood vessel network formed.

[3] = system: human microvascular endothelial cells; assay: Endothelial tubule formation assay; type: cell-based; details: geltrex basement membrane
Method: Referring to FIG. 35 for example, to assess the ability of 5-HT2A agonists and antagonists to inhibit capillary-like endothelial tube formation, human microvascular endothelial cells were seeded into geltrex basement membrane and overlaid with endothelial growth medium containing vascular endothelial growth factor (VEGF) and the indicated drugs. Both 5HT2A agonists and antagonists disrupted formation of endothelial tube networks, the formation of branching, complex capillary structures, and interconnectivity of capillary tubes.

HSV-1 = type: cell-based, mice; details: 500 nM; for HSV-1 reactivation and amount of infectious virus shed from latent neurons (PFU/ml/TG): relative to mock/buffer control, 10 days
HSV-1 RE = assay: Murine model of HSV-1 (RE) chronic herpetic keratitis; type: in vivo, BALB/c mice; details: for signs of disease, including stromal opacity and corneal neovascularization: acute herpetic keratitis stage; for weight loss associated with HSV-1 ocular infection: day 5 to 11 post infection; for ocular histology (H&E, central cornea): day 15 post infection; for # Deceased / # Eyes showing signs of disease / Clinically clear eyes: day 15 post-infection, topical drops 4x per day for 8 days, (R)-DOI 500 μM; for stromal opacity score: following day 8 post infection; for clinical scores (slit lamp score, corneal opacity, neovascularization): up to 15 DPI, versus control BSS
Source text: (§1) 16 BALB/c mice, which can respond with a TH2 biased immune response, were randomly sorted into 3 treatment arms: 1) Ophthalmic Balanced Saline Solution diluted 1:1 in PBS (BSS+PBS) treated (6 mice); 2) DOI treated (XTPFDOI) (5 mice); 3) 1.0% TFT (TFT+PBS) (5 mice). Animals were anesthetized with […]:ketamine and both eyes were scarified in a cross hatch pattern using a curved needle. Immediately following ocular scarification, eyes were inoculated with a 3 microliter drop containing 10,000 plaque forming units (PFU) of Herpes Simplex Virus type 1 (HSV-1) RE strain. The next morning following infection animals were treated with the respective treatment as assigned within their treatment arm. Treatments were applied topically to the eye in a 4 microliter drop. Drops were applied 4× daily from 9 am to 5:30 pm starting immediately following clinical scoring. Treatments were applied for the first 8 days post infection and then stopped on day 8. Clinical scoring was done using a slit lamp biomicroscope magnified at 16× on the days indicated by a single individual masked to the drug treatment parameters. Slit lamp biomicroscopy also included fluorescein exclusion labeling of the corneal surface following scoring of all clinical parameters. Each eye was scored independently. Clinically clear eyes were scored as such if no apparent signs of disease were present in any clinical parameter during the chronic phase.
At day 15 post infection, a stage that will be during chronic immune-associated disease with no virus present, animals were euthanized and the eyes were removed for histology. Random representative eyes were prepared by taking sections through the central cornea and processed by H&E histology for visualization. Sections were examined microscopically and photographed across the central cornea.
BALB/c eyes were scarified and infected with HSV-1 (RE), an HSV-1 strain that causes herpetic keratitis in 100% of ocular infections^31. Starting 24 hours post-infection, topical drops were applied in a masked fashion 4× per day for 8 days. Individual clinical parameters were monitored and scored in a masked fashion for 15 days.
BALB/c eyes were scarified and infected with 10,000 PFU per eye of HSV-1 RE, an HSV-1 strain that causes herpetic keratitis in 100% of ocular infections.
Referring to FIGS. 37-42, for example, individual clinical parameters were monitored and scored in a masked fashion for 15 days post infection. Parameters included weight, death, epiphora, blepharitis, corneal epithelium, corneal neovascularization, stromal opacity, scleral inflammation and fluorescently visualized slitlamp biomicroscopy.
24 hours post infection, topical drops were applied in a masked fashion 4× per day at 4 ul per drop to the surface of the eye. Topical drops consisted of 1% Trifluorthymidine (1% TFT; Viroptic), Ophthalmic Balanced Salt Solution (BSS), or (R)-DOI in Ophthalmic BSS.
as §1, with “preferentially” for “can”, “(BSS)” for “diluted 1:1 in PBS (BSS+PBS)”, “((R)-DOI)” for “(XTPFDOI)”, “TFT” for “TFT (TFT+PBS)”, “Slit lamp biomicroscopy also included fluorescein exclusion labeling of the corneal surface following scoring of all clinical parameters. Each eye was scored independently. Clinically clear eyes were scored as such if no apparent signs of disease were present in any clinical parameter during the chronic phase.” left out

[4] = system: TNFα-induced inflammatory gene and protein expression; details: intraperitoneal, doses up to 30-fold below the CNS behaviorally-active threshold dose; aorta and intestine; cited from earlier work
asthma in a rat model = assay: Rat model of asthma (OVA); type: in vivo; details: OVA (ovalbumin) allergen
Source text: OVA is ovalbumin, a frequently used allergen that induces robust, allergic pulmonary inflammation in laboratory rodents.

Row | SMILES | vascular-like tubular growth from HMEC spheroids [1] | blood vessel sprouting, branching and formation from aortic rings [2] | VEGF-mediated human vascular endothelium tubule formation [3] | signs of disease, including stromal opacity and corneal neovascularization (HSV-1 RE) | weight loss associated with HSV-1 ocular infection (HSV-1 RE) | # Deceased (HSV-1 RE) | # Eyes showing signs of disease (HSV-1 RE) | Clinically clear eyes (HSV-1 RE) | stromal opacity score (HSV-1 RE) | clinical scores (slit lamp score, corneal opacity, neovascularization) (HSV-1 RE) | further results
1 | NCCc1c[nH]c2ccc(O)cc12 [serotonin, 5-hydroxytryptamine] | induces vascularization-like replication and tubule growth |  |  |  |  |  |  |  |  |  | 
2 | O=C(c1ccc(F)cc1)C1CCN(CCCCc2ccccc2)CC1 [4F4PP, reference compound] |  | inhibit VEGF-mediated neovascularization from aortic rings | inhibit VEGF-mediated human vascular endothelium tubule formation |  |  |  |  |  |  |  | 
3 | COc1cc(C[C@@H](C)N)c(OC)cc1I [(R)-DOI, (R)-1-(2,5-dimethoxy-4-iodophenyl)-2-aminopropane] | abrogated formation of vascular-like tubular growth | inhibit VEGF-mediated neovascularization from aortic rings; also recorded: inhibited blood vessel sprouting, branching and formation | inhibit VEGF-mediated human vascular endothelium tubule formation | reduced signs of disease | do not experience significant weight loss | 0/5 | 3/10* | 6/10 | increase in stromal opacity was muted | reduced slit lamp scores, corneal opacity and neovascularization | delay in reactivation of HSV-1 from TGs (HSV-1; relative to mock): 2 fold; HSV-1 reactivation and amount of infectious virus shed from latent neurons (PFU/ml/TG) (HSV-1): inhibits HSV-1 reactivation from latent neurons; also recorded: significantly inhibited the number of reactivating TGs and the amount of infectious virus shed from neurons; HSV-1 reactivation and amount of infectious virus shed from latent neurons (PFU/ml/TG) (HSV-1; listed as DOI): significantly inhibited the degree of reactivation and amount of infectious virus shed from latent neurons; disease relative to control BSS treatment (HSV-1 RE; after day 8, chronic immuno-pathology): significantly reduced disease relative to control BSS treatment; eyes exhibiting complete clinical resolution (HSV-1 RE; by day 15, drops topically applied for 7 days post infection): 60%; corneal neovascularization (HSV-1 RE; compared to control BSS or TFT treated eyes): decreased development of corneal neovascularization; ocular histology (H&E, central cornea) (HSV-1 RE): markedly less disease presentation in all eyes examined; also recorded: most similar to uninfected eyes; ocular histology (H&E, central cornea) (HSV-1 RE; listed as DOI): normal ocular morphology with an absence of clinical signs of ocular disease; clinical scores (slit lamp score, corneal opacity, neovascularization) (HSV-1 RE; listed as DOI): suppressed development of all clinically scored parameters; concentration at which the inhibitory effects began to no longer be as effective ([2]; neovascularization, sprouting, branching, networking): 10 nM; TNFα-induced inflammatory gene and protein expression [4]: potently inhibits TNFα-induced inflammatory gene and protein expression
4 | O=c1[nH]c(=O)n([C@H]2C[C@H](O)[C@@H](CO)O2)cc1C(F)(F)F [1% TFT, trifluorothymidine, reference compound] |  |  |  | reduced signs of disease | experienced weight loss associated with HSV-1 ocular infections | 0/5 | 7/10 | 0/10 | markedly increased opacity score | initially controlled ocular disease development relative to control BSS treated eyes | ocular histology (H&E, central cornea) (HSV-1 RE; listed as TFT): immune cell infiltration, thickening of the stroma, neovascularization, and disruption of the corneal epithelial layers
5 | COc1cc(CCN)c(OC)cc1I [2CI, 2-(4-Iodo-2,5-dimethoxyphenyl)ethan-1-amine] | abrogated formation of vascular-like tubular growth |  |  |  |  |  |  |  |  |  | 
6 | CCN(CC)C(=O)[C@@H]1C=C2c3cccc4[nH]cc(c34)C[C@H]2N(C)C1 [LSD] |  |  |  |  |  |  |  |  |  |  | symptoms of asthma (asthma in a rat model): can prevent symptoms of asthma
